Results as given in patent publication US20020143034A1, “Aminoalcohol derivatives and their use as beta 3 adrenergic agonists” (Fujisawa Pharmaceutical Co. Ltd., priority 1998, published 2002).

Tested on: anesthetized dog
Assay: Effect on the increase in intravesical pressure induced by carbachol in anesthetized dog
Assay type: in vivo
Conditions: 0.32 mg/kg intra-duodenal, 30 minutes before carbachol (1.8 μg/kg); female Beagle dogs under halothane anesthesia; N = 2; Control 9.3
Procedure: Effect on the increase in intravesical pressure induced by carbachol in anesthetized dog
Female Beagle dogs weighing 8.0-15.0 kg were fasted for 24 hours and maintained under halothane anesthesia. A 12F Foley catheter was lubricated with water soluble jelly, inserted into the urethral orifice and advanced approximately 10 cm until the balloon tip was placed well inside the bladder. The balloon was then inflated with 5 ml of room air and catheter slowly withdrawn just part the first resistance that is felt at the bladder neck. Urine was completely drained out thought the catheter, and 30 ml of biological saline was infused. The catheter was connected to pressure transducer, and intravesical pressure was continuously recorded. The test compound was injected by intra-duodenal route at 30 minutes before the administration of carbachol (1.8 μg/kg).

Q: For COc1ccc2c(Oc3ccc(C[C@@H](CO)NC[C@H](O)COc4ccccc4)cc3)ccnc2c1 [Example 78, 2(S)-2-[(2S)-2-hydroxy-3-(phenoxy)propylamino]-3-[4-(7-methoxyquinolin-4-yloxy)phenyl]propan-1-ol], which “Increase in intravesical pressure” value is on record?
A: 5.5 mmHg
